Assay results from publication PMC5955586, “Transport of enniatin B and enniatin B1 across the blood-brain barrier and hints for neurotoxic effects in cerebral cells” (PLoS ONE, 2018).
Several values for one entry are separate records, joined by “and”; a condition that tells them apart may be missing. Identical values can stand only once.

Tests used:
[1] = Pig feeding study, plasma concentration; assay type: in vivo; conditions: worst case contamination 5.8 mg/kg ENN B, 18.3 mg/kg ENN B1
[2] = system: CCF-STTG1 cells; test: CCK-8 viability assay in CCF-STTG1; assay type: cell-based, human; conditions: for concentration with highly significant cytotoxic effects / IC50: CCF-STTG1, 48 h; for IC50: Homo sapiens, CCK-8, read-out: IC50 (cellular viability)
Description: To test the viability and to define the working range for later transport studies ENN B/ENN B1 stock solutions in ACN were diluted to the respective concentrations with serum free culture medium (1% ACN). An astrocytoma cell line, CCF-STTG1 (ATCC, Manassas, USA), and HBMEC cell line (human brain microvascular endothelial cells, kindly provided by Prof. Dr. Karch, Institute of Hygiene, University of Muenster (WWU Muenster)) were cultivated in RPMI 1640 medium supplemented with 100 U/mL penicillin, 100 μg/mL streptomycin, 2 mM L-glutamine and 10% (v/v) fetal calf serum (FCS) (medium for HBMEC additionally supplemented with 1 mM Na-pyruvate) using standardized culture conditions (37°C, 5% CO2, saturated humidified atmosphere). Culture medium was changed every 2–3 d, and the cells were subcultivated after trypsination when they reached a microscopic confluence of approximately 80%. For the evaluation of cytotoxic effects of ENN B and B1 in CCF-STTG1 and HBMEC, Cell Counting Kit-8 (CCK-8, Dojindo Laboratories, Tokyo Japan) was applied. The assay was performed according to the manufacturer’s instructions with slight modifications.
Briefly, the cells were seeded in 96-well tissue culture plates in a density of 1 × 10^4 cells/well (CCF-STTG1) and 4 × 10^3 cells/well (HBMEC), respectively. The cells were allowed to grow for 24 h, then the culture medium was replaced by serum free medium (100 μL/well), and the cells were cultivated for another 24 h (37°C, 5% CO2, saturated humidified atmosphere) before treatment. The cells were treated with ENN B and ENN B1 in a concentration range from 0.1 μM to 10 μM and were incubated for 48 h. After toxin exposure, the toxin solution was exchanged with a dye solution WST-8 (CCK-8 solution, water soluble tetrazolium salt-8, 2-(2-methoxy-4-nitrophenyl)-3-)4-nitrophenyl)-5-(2,4-disulfophenyl)-2H-tetrazolium monosodium salt), 1:10 diluted with fresh serum free medium, which was added to the cells followed by incubation for 60 min at 37°C. WST-8 dye is reduced to a water-soluble formazan by cellular dehydrogenases of viable cells, which increases the absorbance at λ = 457 nm and was measured with an Infinite M200 PRO microplate reader with Tecan i-control software version 1.7.1.12 (Tecan, Crailsheim, Germany). The amount of formazan generated by the activity of dehydrogenases in cells is directly proportional to the number of viable cells per well. The results are normalized to a solvent treated negative control (1% ACN).

[3] = CCK-8 viability assay in PBCEC; assay type: cell-based, porcine; conditions: pig, primary porcine brain capillary endothelial cells (PBCEC)
Description: (§1) Primary porcine brain capillary endothelial cells (PBCEC) were kindly provided by the group of Prof. Dr. Langer, Institute of Pharmaceutical Technology, WWU Münster. Cellular viability was tested after treatment for 48 h using the CCK-8 assay, like applied for the cell lines but with minor modifications. Based on earlier protocols for the cultivation of PBCEC, the cryopreserved PBCEC were thawed at 37°C in a water bath, gently resuspended in culture medium (Medium 199 Earle’s with 100 U/mL penicillin, 100 μg/mL streptomycin, 100 μg/mL gentamycin, 4.1 mM L-glutamine and 10% fetal calf serum) and centrifugated at 220 × g at 20°C for 10 min. After removal of the supernatant, fresh complete medium was added and the cell pellet was resuspended twice and diluted to desired cell density. The cells were seeded on rat tail collagen coated 96-well tissue culture plates with 100 μL of the cell suspension per well. PBCEC were allowed to grow for 48 h at 37°C, 5% CO2 under saturated humidified conditions. Complete medium was exchanged for serum free medium (DMEM/Ham’s F-12 1:1 with 100 U/mL penicillin, 100 μg/mL streptomycin, 100 μg/mL gentamycin, 0.7 mM L-glutamine and 550 nM hydrocortisone (Sigma-Aldrich, Steinheim, Germany)). On day 5 in culture (96 h after seeding) half of the medium (50 μL) was removed and exchanged with 50 μL double concentrated ENN solution to reach the desired final concentrations in a concentration range from 0.1 μM to 10 μM. The cells were treated with the test substances in concentrations from 0.1 to 10 μM for 48 h. Due to the sensitivity of the primary cells, after completion of 48 h, the incubation medium was not exchanged but each well was supplemented with 10 μL of the CCK-8 solution and incubated for 70 min at 37°C, 5% CO2 in a saturated humidified atmosphere. Then the absorbance of the generated formazan dye was measured at 457 nm with 650 nm as reference wavelength. After subtracting the reference absorption as well as a blank absorption without cells, the viabilities were normalized to a solvent treated negative control (1% ACN).

[4] = system: PBCEC; test: CCK-8 viability assay in PBCEC; assay type: cell-based, porcine; conditions: 48 h; for cytotoxic effects: 1 μM
Description: as §1

[5] = system: HepG2 cells; set-up: method as in PMID 16730043; conditions: HepG2, 24 h, Alamar Blue; cited from earlier work
[6] = system: HT-29; set-up: method as in PMID 21640785; conditions: HT-29, 48 h; cited from earlier work

Row | Compound | theoretical plasma levels [1] | effect on viability ([2]; CCF-STTG1, 0.1 μM and 1 μM, 48 h) | concentration with highly significant cytotoxic effects [2] [nM] | IC50 [2] [µM] | viability at 48 h, 10 µM ([3]; 10 μM, read-out: relative viability) [%] | cytotoxic effects [4] | concentration with highly significant cytotoxicity [4] | IC50 [5] [µM] | IC50 [6] [µM] | viability at 48 h ([3]; concentrations above 5 μM, read-out: cellular viability, minimum) [%]
1 | CC[C@H](C)[C@H]1C(=O)O[C@H](C(C)C)C(=O)N(C)[C@@H](C(C)C)C(=O)O[C@H](C(C)C)C(=O)N(C)[C@@H](C(C)C)C(=O)O[C@H](C(C)C)C(=O)N1C [ENN B1, enniatin B1] | 0.641 μg/mL and 0.980 μM | weak but significant effects | ≥ 2500 | 4.4 | 64 | did not show any cytotoxic effects | ≥ 2500 nM | 36 | 3.7 | 
2 | CC(C)[C@H]1C(=O)O[C@H](C(C)C)C(=O)N(C)[C@@H](C(C)C)C(=O)O[C@H](C(C)C)C(=O)N(C)[C@@H](C(C)C)C(=O)O[C@H](C(C)C)C(=O)N1C [ENN B, enniatin B] | 0.423 μg/mL and 0.662 μM |  | ≥ 5000 | 8.9 |  | did not show any cytotoxic effects | above 5 μM | 436 | 2.8 | 70
